Source: US10882818B1, “P-bromoaniline cassic acid ester with antibacterial activity and a method of preparing the same” (ZHUHAI JINAN SELENIUM SOURCE NANOTECHNOLOGY CO., LTD., priority 2020, dated 2021)
Converted amounts (≈) assume the structure as drawn.

Key:
Format in all cases: cell-based
[1] = system: multidrug-resistant Pseudomonas aeruginosa MDR-PA 18-174; assay: Antibacterial activity test, MIC by microbroth dilution; conditions: for Minimum bacteriostatic concentration: MDR-PA 18-174, microbroth dilution, 37° C., 20-22 hours
Description: (§1) The minimal inhibitory concentration (MIC) of the compounds as determined by microbroth dilution method with gentamicin, cefazolin sodium and ceftriaxone sodium as positive control.
(§2) The experimental strains included methicillin-resistant Gram-positive bacteria: methicillin-resistant Staphylococcus aureus MRSA 18-222, 18-575; multiple drug-resistant Gram-negative bacteria: vancomycin-resistant enterococci VRE 18-80, 18-94, multidrug-resistant Pseudomonas aeruginosa MDR-PA 18-1774, 18-202, carbapenem-resistant Acinetobacter baumannii CR-AB 18-183, 18-560. All the experimental strains were donated by Huashan Hospital affiliated to Fudan University (Institute of Antibiotics, Fudan University) and used after routine identification.
(§3) Preparation of MHB medium: 20.0 g MHB medium was added to 1 L distilled water, boiled until completely dissolved, packed in conical bottles and sterilized at 121° C. for 15 min.
(§4) The experimental strain was cultured to the logarithmic growth phase: under aseptic condition, the experimental strain was inoculated into 100 mL MHB medium and incubated in a constant temperature and humidity incubator at 37° C. for 20-22 hours.
(§5) Preparation of storage solution: weighing the sample to be tested, dissolving it with 1% DMSO solution, preparing a storage solution with a concentration of 2560 μg/mL; weighing a positive reference substance, dissolving it with aseptic distilled water, and configuring a storage solution with a concentration of 2560 μg/mL.
(§6) Preparation of bacterial suspension: under aseptic condition, the experimental strains cultured to logarithmic growth phase were adjusted to 0.5 MCF turbidity standard with MHB medium and diluted according to 1:10, and the bacterial suspension with concentration of 10^6 CFU/mL was prepared for standby.
(§7) Dilution of storage solution and inoculation of experimental strain: under aseptic condition, the storage solution was diluted to 256 μg/mL solution; taking a sterile 96-well plate, adding 200 μL MHB medium to the 12th well, and adding 100 μL MHB medium to each well; adding 100 μL of positive control solution to the first well, mixing well, and sucking 100 μL from it and discarding; adding 100 μL of the compound sample solution to the second well, mixing well, and then pipetting 100 μL to the third well; after mixing, pipetting 100 μL to the fourth well, and diluting to the 11th well in this way; finally, 100 μL was pipetted from the 11th well and discarded, the 12th hole was the growth control without drugs. The concentration of the positive reference substance is 128 μg/mL; the concentrations of the sample solution are 128, 64, […], 8, 4, 2, 1, 0.5, 0.25 μg/mL, respectively. Then, 100 μL of the prepared bacterial suspension is added to each well, so that the final concentration of the bacterial liquid in each well is 5×10^5 CFU/mL.
(§8) Incubation: covering the 96-well plate inoculated with the experimental strains, and incubating in a constant temperature and humidity box at 37° C. for 20-22 hours.
In FIGS. 1-6, the twelve wells represent twelve groups, from left to right, positive, 128 μg/mL, 64 μg/mL, 32 μg/mL, 16 μg/mL, 8 μg/mL, 4 μg/mL, 2 μg/mL, 1 μg/mL, […], Negative.

[2] = system: methicillin-resistant Staphylococcus aureus MRSA 18-222; assay: as above; conditions: 37° C., 20-22 hours
Description: as §1, §2, §3, §4, §5, §6, §7, §8

[3] = system: methicillin-resistant Staphylococcus aureus MRSA 18-575; assay: as above; conditions: 37° C., 20-22 hours
Description: as §1, §2, §3, §4, §5, §6, §7, §8

[4] = system: carbapenem-resistant Acinetobacter baumannii CR-AB 18-183; assay: as above; conditions: 37° C., 20-22 hours
Description: as §1, §2, §3, §4, §5, §6, §7, §8

[5] = system: multidrug-resistant Pseudomonas aeruginosa MDR-PA 18-202; assay: as above; conditions: 37° C., 20-22 hours
Description: as §1, §2, §3, §4, §5, §6, §7, §8

[6] = system: vancomycin-resistant enterococci VRE 18-94; assay: as above; conditions: for Minimum bacteriostatic concentration: VRE 18-94, microbroth dilution, 37° C., 20-22 hours
Description: as §1, §2, §3, §4, §5, §6, §7, §8

[7] = system: carbapenem-resistant Acinetobacter baumannii CR-AB 18-560; assay: as above; conditions: 37° C., 20-22 hours
Description: as §1, §2, §3, §4, §5, §6, §7, §8

[8] = system: vancomycin-resistant enterococci VRE 18-80; assay: as above; conditions: 37° C., 20-22 hours
Description: as §1, §2, §3, §4, §5, §6, §7, §8

[9] = system: drug-resistant bacteria; assay: Antibacterial activity test, overall result on the strain panel; conditions: all experimental strains, up to 128 μg/mL
Description: as §1, §2, §3
The experimental strain was cultured to the logarithmic growth phase: under aseptic condition, the experimental strain was inoculated into 100 mL MHB medium and incubated in a constant temperature and humidity incubator at 37° C. for 20-22 hours. […]

For `O=C(Nc1ccc(Br)cc1)c1cc(O)c2c(c1)C(=O)c1cccc(O)c1C2=O` [p-Bromoaniline cassic acid ester, N-(4-bromophenyl)-4,5-dihydroxy-9,10-dioxo-9,10-dihydroanthracene-2-carboxamide], the Minimum bacteriostatic concentration [1] was 32 µg/mL, the MIC ([1]; multi-drug resistant Pseudomonas aeruginosa MDR-PA (strain number not given)) was 32 mg/L (≈ 73 µM) and the Minimum bacteriostatic concentration [2] was over 128 µg/mL. The Minimum bacteriostatic concentration [3] was over 128 µg/mL, the Minimum bacteriostatic concentration [4] was over 128 µg/mL and the Minimum bacteriostatic concentration [5] was over 128 µg/mL. For the same molecule, the MIC ([6]; Enterococcus, vancomycin-resistant enterococci VRE 18-94) was 128 mg/L (≈ 292 µM), the Minimum bacteriostatic concentration [6] was 128 µg/mL and the Minimum bacteriostatic concentration [7] was over 128 µg/mL. It also gave a Minimum bacteriostatic concentration [8] of over 128 µg/mL.

`CO/N=C(\C(=O)N[C@@H]1C(=O)N2C(C(=O)O)=C(CSc3nc(=O)c(=O)[nH]n3C)CS[C@H]12)c1csc(N)n1` [Ceftriaxone sodium, ceftriaxone sodium] gave a Minimum bacteriostatic concentration [1] of 128 µg/mL, a Minimum bacteriostatic concentration [2] of over 128 µg/mL and a Minimum bacteriostatic concentration [3] of over 128 µg/mL. The Minimum bacteriostatic concentration [4] was over 128 µg/mL, the Minimum bacteriostatic concentration [5] was 16 µg/mL and the Minimum bacteriostatic concentration [6] was over 128 µg/mL. It also gave a Minimum bacteriostatic concentration [7] of over 128 µg/mL and a Minimum bacteriostatic concentration [8] of 8 µg/mL.

In the case of `O=C(O)c1cc(O)c2c(c1)C(=O)c1cccc(O)c1C2=O` [Cassic acid], the “inhibitory effect on drug-resistant bacteria” value [9] is reported as “no inhibitory effect”, the Minimum bacteriostatic concentration [1] is reported as over 128 µg/mL and the Minimum bacteriostatic concentration [2] is reported as over 128 µg/mL. The Minimum bacteriostatic concentration [3] was over 128 µg/mL, the Minimum bacteriostatic concentration [4] was over 128 µg/mL and the Minimum bacteriostatic concentration [5] was over 128 µg/mL. The Minimum bacteriostatic concentration [6] was over 128 µg/mL, the Minimum bacteriostatic concentration [7] was over 128 µg/mL and the Minimum bacteriostatic concentration [8] was over 128 µg/mL.

`Nc1ccc(Br)cc1` [P-Bromoaniline, P-bromoaniline] was tested, and the “inhibitory effect on drug-resistant bacteria” value [9] was “no inhibitory effect”, the Minimum bacteriostatic concentration [1] was over 128 µg/mL and the Minimum bacteriostatic concentration [2] was over 128 µg/mL. For the same molecule, the Minimum bacteriostatic concentration [3] was over 128 µg/mL, the Minimum bacteriostatic concentration [4] was over 128 µg/mL and the Minimum bacteriostatic concentration [5] was over 128 µg/mL. For the same molecule, the Minimum bacteriostatic concentration [6] was over 128 µg/mL, the Minimum bacteriostatic concentration [7] was over 128 µg/mL and the Minimum bacteriostatic concentration [8] was over 128 µg/mL.

gentamicin showed a Minimum bacteriostatic concentration [1] of 0.0625 µg/mL, a Minimum bacteriostatic concentration [2] of 128 µg/mL and a Minimum bacteriostatic concentration [3] of 2 µg/mL. It also gave a Minimum bacteriostatic concentration [4] of over 128 µg/mL, a Minimum bacteriostatic concentration [5] of 0.0625 µg/mL and a Minimum bacteriostatic concentration [6] of over 128 µg/mL. It also gave a Minimum bacteriostatic concentration [7] of over 128 µg/mL and a Minimum bacteriostatic concentration [8] of 0.0625 µg/mL.

In the case of `Cc1nnc(SCC2=C(C(=O)O)N3C(=O)[C@@H](NC(=O)Cn4cnnn4)[C@H]3SC2)s1` [Cefazolin sodium, cefazolin sodium], the Minimum bacteriostatic concentration [1] is reported as 8 µg/mL, the Minimum bacteriostatic concentration [2] is reported as over 128 µg/mL and the Minimum bacteriostatic concentration [3] is reported as over 128 µg/mL. The Minimum bacteriostatic concentration [4] was over 128 µg/mL, the Minimum bacteriostatic concentration [5] was 128 µg/mL and the Minimum bacteriostatic concentration [6] was over 128 µg/mL. The Minimum bacteriostatic concentration [7] was over 128 µg/mL and the Minimum bacteriostatic concentration [8] was 32 µg/mL.
